Assay results: US10285962B2, “Glutarate compounds for treating ischemia-reperfusion injuries” (The Regents of the University of California, priority 2016, dated 2019)

Key:
[1] = system: myocardial infarct size in IR injury; design: protection against IR injury (TTC stained cross-sections): dose or concentration left out as unconfirmed; conditions: for protection against IR injury (TTC stained cross-sections): single IV bolus at reperfusion
[2] = system: electron flow through the ETC (Complex I, II, IV); experiment: electron flow through the ETC, OCR of isolated mouse heart mitochondria; format: biochemical
[3] = target: heart ATP synthase (complex V) (Mus musculus, UniProt P56480); experiment: respiration of mitochondria isolated from mouse heart (ATP synthase / complex V inhibition)

SMILES: CC(C)(COP(=O)(O)OP(=O)(O)OC[C@H]1O[C@@H](n2cnc3c(N)ncnc32)[C@H](O)[C@@H]1OP(=O)(O)O)[C@@H](O)C(=O)NCCC(=O)NCCSC(=O)CCC(=O)O [succinyl-CoA]
- protection against IR injury (TTC stained cross-sections) [1]: significant protection

SMILES: O=C(O)CCC(=O)C(=O)O [α-KG, α-ketoglutarate]
- electron flow through the ETC ([2]; isolated mouse heart mitochondria): does not affect
- Complex I, Complex II, or Complex IV respiration ([2]; sequential rotenone, succinate, antimycin A, TMPD): No difference
- reduction of infarct size ([1]; mouse, in vivo): about 70%
- protection in the presence of the HIF-1 inhibitor echinomycin ([1]; mouse, in vivo, iv): fully protective
- complex V activity ([3]; […]): inhibits
- state 3 respiration ([3]; initiated by 2 mM ADP): decreases

SMILES: O=C(O)CCC(=O)O [succinate]
- protection against IR injury (TTC stained cross-sections) [1]: does not

SMILES: CC[C@H]1/C=C/C=C/C[C@@H](C)[C@H](O)[C@@](C)(O)C(=O)[C@@H](C)[C@H](O)[C@@H](C)C(=O)[C@@H](C)[C@H](O)[C@@H](C)/C=C/C(=O)O[C@@H]2[C@H](C)[C@H](CC1)O[C@]1(CC[C@H](C)[C@H](C[C@@H](C)O)O1)[C@H]2C [oligomycin]
- toxicity ([1]; 5 μM, administered at the time of reperfusion): toxic
- myocardial infarct size ([1]; lower doses (e.g., 10 nM) given at reperfusion): significantly reduce myocardial infarct size
